# From article PMC11005723, “Development of Complementary Photo‐arginine/lysine to Promote Discovery of Arg/Lys hPTMs Interactomes” (Advanced Science, 2024)
# Test system: HEK293T nuclear lysates
# Experiment: SILAC‐based pull‐down proteomics H4K5me2/H4K5 (probes 7/5)
# Assay type: binding, human
# Details: for F6 log2 (H4K5me2/H4K5): run F6; for E6 log2 (H4K5me2/H4K5): run E6
substance,measurement,setting,value
probe 7: H4K5me2 peptide probe with photo‐arginine R(dz) and K(biotin) (SGRGKGGKGLGKGGK; photo-arginine R(dz) at 3; dimethyl-lysine at 5; K(biotin) at 15),F6 log2 (H4K5me2/H4K5),protein Q5SY16 NOL9,0.298
same,E6 log2 (H4K5me2/H4K5),protein Q5UIP0 RIF1,0.1193
same,F6 log2 (H4K5me2/H4K5),protein Q5UIP0 RIF1,-0.04241
same,E6 log2 (H4K5me2/H4K5),protein Q5VZL5 ZMYM4,0.09551
same,F6 log2 (H4K5me2/H4K5),protein Q5VZL5 ZMYM4,-0.04431
same,E6 log2 (H4K5me2/H4K5),protein Q8NFW8 CMAS,0.141
same,F6 log2 (H4K5me2/H4K5),protein Q8NFW8 CMAS,0.05465
same,E6 log2 (H4K5me2/H4K5),protein Q8WYA6 CTNNBL1,0.1516
same,F6 log2 (H4K5me2/H4K5),protein Q8WYA6 CTNNBL1,0.456
same,E6 log2 (H4K5me2/H4K5),protein Q9BRX2 PELO,0.1716
same,F6 log2 (H4K5me2/H4K5),protein Q9BRX2 PELO,0.4162
same,E6 log2 (H4K5me2/H4K5),protein Q9BUF5 TUBB6,0.1331
same,F6 log2 (H4K5me2/H4K5),protein Q9BUF5 TUBB6,-0.5148
same,E6 log2 (H4K5me2/H4K5),protein Q9BVA1 TUBB2B,0.166
same,F6 log2 (H4K5me2/H4K5),protein Q9BVA1 TUBB2B,-0.2469
same,E6 log2 (H4K5me2/H4K5),protein Q9BVJ6 UTP14A,0.05903
same,F6 log2 (H4K5me2/H4K5),protein Q9BVJ6 UTP14A,-0.461
same,E6 log2 (H4K5me2/H4K5),protein Q9BW71 HIRIP3,0.0877
same,F6 log2 (H4K5me2/H4K5),protein Q9BW71 HIRIP3,-0.01781
same,E6 log2 (H4K5me2/H4K5),protein Q9BXP5 SRRT,0.141
same,F6 log2 (H4K5me2/H4K5),protein Q9BXP5 SRRT,0.1118
same,E6 log2 (H4K5me2/H4K5),protein Q9H4L7 SMARCAD1,0.1459
same,F6 log2 (H4K5me2/H4K5),protein Q9H4L7 SMARCAD1,0.07323
same,E6 log2 (H4K5me2/H4K5),protein Q9H5H4 ZNF768,0.1121
same,F6 log2 (H4K5me2/H4K5),protein Q9H5H4 ZNF768,0.2152
same,E6 log2 (H4K5me2/H4K5),protein Q9NPJ6 MED4,0.1455
same,F6 log2 (H4K5me2/H4K5),protein Q9NPJ6 MED4,0.1113
same,E6 log2 (H4K5me2/H4K5),protein Q9NRL2 BAZ1A,0.163
same,F6 log2 (H4K5me2/H4K5),protein Q9NRL2 BAZ1A,0.1532
same,E6 log2 (H4K5me2/H4K5),protein Q9NX58 LYAR,0.1556
same,F6 log2 (H4K5me2/H4K5),protein Q9NX58 LYAR,0.3557
same,E6 log2 (H4K5me2/H4K5),protein Q9P013 CWC15,0.1308
same,F6 log2 (H4K5me2/H4K5),protein Q9P013 CWC15,0.1373
same,E6 log2 (H4K5me2/H4K5),protein Q9P258 RCC2,0.1054
same,F6 log2 (H4K5me2/H4K5),protein Q9P258 RCC2,0.04172
same,E6 log2 (H4K5me2/H4K5),protein Q9UFW8 CGGBP1,0.1502
same,F6 log2 (H4K5me2/H4K5),protein Q9UFW8 CGGBP1,0.1918
same,E6 log2 (H4K5me2/H4K5),protein Q9ULV4 CORO1C,0.1506
same,F6 log2 (H4K5me2/H4K5),protein Q9ULV4 CORO1C,0.2392
same,E6 log2 (H4K5me2/H4K5),protein Q9Y5Q8 GTF3C5,0.07771
same,F6 log2 (H4K5me2/H4K5),protein Q9Y5Q8 GTF3C5,-0.06295
same,E6 log2 (H4K5me2/H4K5),protein Q9Y5Q9 GTF3C3,0.06434
same,F6 log2 (H4K5me2/H4K5),protein Q9Y5Q9 GTF3C3,0.04559
same,E6 log2 (H4K5me2/H4K5),protein Q9Y6G9 DYNC1LI1,0.06739
same,F6 log2 (H4K5me2/H4K5),protein Q9Y6G9 DYNC1LI1,0.07842
same,E6 log2 (H4K5me2/H4K5),protein Q9Y383 LUC7L2,0.1112
same,F6 log2 (H4K5me2/H4K5),protein Q9Y383 LUC7L2,0.1004
same,E6 log2 (H4K5me2/H4K5),protein Q69YN4 KIAA1429,0.07633
same,F6 log2 (H4K5me2/H4K5),protein Q69YN4 KIAA1429,1.095
same,E6 log2 (H4K5me2/H4K5),protein Q86UV5 USP48,0.08539
same,F6 log2 (H4K5me2/H4K5),protein Q86UV5 USP48,0.1516
same,E6 log2 (H4K5me2/H4K5),protein Q86VP6 CAND1,0.1189
same,F6 log2 (H4K5me2/H4K5),protein Q86VP6 CAND1,0.1916
same,E6 log2 (H4K5me2/H4K5),protein Q96I24 FUBP3,0.09267
same,F6 log2 (H4K5me2/H4K5),protein Q96I24 FUBP3,0.003553
same,E6 log2 (H4K5me2/H4K5),protein Q96RL1 UIMC1,0.1095
same,F6 log2 (H4K5me2/H4K5),protein Q96RL1 UIMC1,0.3246
same,E6 log2 (H4K5me2/H4K5),protein Q96SI9 STRBP,0.1111
same,F6 log2 (H4K5me2/H4K5),protein Q96SI9 STRBP,-0.1086
same,E6 log2 (H4K5me2/H4K5),protein Q00839 HNRNPU,0.1593
same,F6 log2 (H4K5me2/H4K5),protein Q00839 HNRNPU,0.1015
same,E6 log2 (H4K5me2/H4K5),protein Q06265 EXOSC9,0.08559
same,F6 log2 (H4K5me2/H4K5),protein Q06265 EXOSC9,0.2199
same,E6 log2 (H4K5me2/H4K5),protein Q08211 DHX9,0.1119
same,F6 log2 (H4K5me2/H4K5),protein Q08211 DHX9,0.3522
same,E6 log2 (H4K5me2/H4K5),protein Q12888 TP53BP1,0.1736
same,F6 log2 (H4K5me2/H4K5),protein Q12888 TP53BP1,0.06404
same,E6 log2 (H4K5me2/H4K5),protein Q13409 DYNC1I2,0.06369
same,F6 log2 (H4K5me2/H4K5),protein Q13409 DYNC1I2,-0.3262
same,E6 log2 (H4K5me2/H4K5),protein Q13838 DDX39B,0.1273
same,F6 log2 (H4K5me2/H4K5),protein Q13838 DDX39B,0.2575
same,E6 log2 (H4K5me2/H4K5),protein Q14247 CTTN,0.1014
same,F6 log2 (H4K5me2/H4K5),protein Q14247 CTTN,-0.09702
same,E6 log2 (H4K5me2/H4K5),protein Q14498 RBM39,0.177
same,F6 log2 (H4K5me2/H4K5),protein Q14498 RBM39,0.352
same,E6 log2 (H4K5me2/H4K5),protein Q14683 SMC1A,0.1403
same,F6 log2 (H4K5me2/H4K5),protein Q14683 SMC1A,0.1731
same,E6 log2 (H4K5me2/H4K5),protein Q15007 WTAP,0.1397
same,F6 log2 (H4K5me2/H4K5),protein Q15007 WTAP,0.4766
same,E6 log2 (H4K5me2/H4K5),protein Q15029 EFTUD2,0.07001
same,F6 log2 (H4K5me2/H4K5),protein Q15029 EFTUD2,0.00906
same,E6 log2 (H4K5me2/H4K5),protein Q15181 PPA1,0.1337
same,F6 log2 (H4K5me2/H4K5),protein Q15181 PPA1,0.2844
same,E6 log2 (H4K5me2/H4K5),protein Q15366 PCBP2,0.119
same,F6 log2 (H4K5me2/H4K5),protein Q15366 PCBP2,0.02194
same,E6 log2 (H4K5me2/H4K5),protein Q15459 SF3A1,0.09759
same,F6 log2 (H4K5me2/H4K5),protein Q15459 SF3A1,-0.03717
same,E6 log2 (H4K5me2/H4K5),protein Q15637 SF1,0.06831
same,F6 log2 (H4K5me2/H4K5),protein Q15637 SF1,-0.04609
same,E6 log2 (H4K5me2/H4K5),protein Q15654 TRIP6,0.1136
same,F6 log2 (H4K5me2/H4K5),protein Q15654 TRIP6,0.7606
same,E6 log2 (H4K5me2/H4K5),protein Q16543 CDC37,0.09946
same,F6 log2 (H4K5me2/H4K5),protein Q16543 CDC37,-0.01218
same,E6 log2 (H4K5me2/H4K5),protein Q92769 HDAC2,0.1172
same,F6 log2 (H4K5me2/H4K5),protein Q92769 HDAC2,0.07863
same,E6 log2 (H4K5me2/H4K5),protein Q92785 DPF2,0.1557
same,F6 log2 (H4K5me2/H4K5),protein Q92785 DPF2,0.235
same,E6 log2 (H4K5me2/H4K5),protein Q92945 KHSRP,0.0526
same,F6 log2 (H4K5me2/H4K5),protein Q92945 KHSRP,0.2777
same,E6 log2 (H4K5me2/H4K5),protein Q99459 CDC5L,0.1274
same,F6 log2 (H4K5me2/H4K5),protein Q99459 CDC5L,-0.0666
